This is an account of results in ChEMBL document CHEMBL1955733, “Optimization of 5-pyridazin-3-one phenoxypropylamines as potent, selective histamine H₃ receptor antagonists with potent cognition enhancing activity” (J Med Chem, 2012).

Data set [1] in a line: Oral bioavailability in Sprague-Dawley rat at 5 mg/kg. It is filed as ADME, organism-based. Particulars: in vivo.
Data set [2] is described as follows: Clearance in Sprague-Dawley rat at 1 mg/kg, iv and 5 mg/kg, po. It is filed as ADME, organism-based. Particulars: in vivo.
In data set [3] the target is Histamine H3 receptor (Rattus norvegicus, UniProt Q9QYN8). Kind of data set: Displacement of [3H]NAMH from rat cloned […] expressed in CHO cells. It is filed as cell-based.
A short description of data set [4]: Half life in Sprague-Dawley rat at 1 mg/kg, iv and 5 mg/kg, po. It is filed as ADME, organism-based. Particulars: in vivo.
Data set [5] addresses Histamine H3 receptor (Homo sapiens, UniProt Q9Y5N1). Kind of data set: Displacement of [3H]NAMH from human cloned […] expressed in CHO cells. It counts as cell-based. Background: Loss of bound radioactivity is the signal in a displacement assay; it reports binding, not function.
Data set [6] in a line: Ratio of drug level in brain to plasma in Sprague-Dawley rat at 10 mg/kg, ip after 1 hr. Conditions: brain and plasma, read-out: BPR. It counts as ADME, organism-based. Set-up: dose 10 mg/kg, route intraperitoneal.

pKi: −log10 of the molar value.

Histamine H3 receptor (Homo sapiens, UniProt Q9Y5N1), sequence (Q9Y5N1 whole entry): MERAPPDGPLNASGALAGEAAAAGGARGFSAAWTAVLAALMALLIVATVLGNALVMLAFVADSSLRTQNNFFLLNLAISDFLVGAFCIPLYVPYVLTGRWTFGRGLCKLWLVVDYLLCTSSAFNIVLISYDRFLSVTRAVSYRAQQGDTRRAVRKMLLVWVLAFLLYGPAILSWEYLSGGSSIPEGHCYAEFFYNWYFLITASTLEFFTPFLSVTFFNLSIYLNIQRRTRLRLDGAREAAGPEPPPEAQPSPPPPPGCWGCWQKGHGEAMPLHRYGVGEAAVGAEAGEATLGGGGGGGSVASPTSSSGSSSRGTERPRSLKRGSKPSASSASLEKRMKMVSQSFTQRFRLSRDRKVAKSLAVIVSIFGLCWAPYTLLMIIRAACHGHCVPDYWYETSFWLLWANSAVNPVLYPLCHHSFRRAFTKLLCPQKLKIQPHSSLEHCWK
Histamine H3 receptor (Rattus norvegicus, UniProt Q9QYN8), sequence (Q9QYN8 whole entry): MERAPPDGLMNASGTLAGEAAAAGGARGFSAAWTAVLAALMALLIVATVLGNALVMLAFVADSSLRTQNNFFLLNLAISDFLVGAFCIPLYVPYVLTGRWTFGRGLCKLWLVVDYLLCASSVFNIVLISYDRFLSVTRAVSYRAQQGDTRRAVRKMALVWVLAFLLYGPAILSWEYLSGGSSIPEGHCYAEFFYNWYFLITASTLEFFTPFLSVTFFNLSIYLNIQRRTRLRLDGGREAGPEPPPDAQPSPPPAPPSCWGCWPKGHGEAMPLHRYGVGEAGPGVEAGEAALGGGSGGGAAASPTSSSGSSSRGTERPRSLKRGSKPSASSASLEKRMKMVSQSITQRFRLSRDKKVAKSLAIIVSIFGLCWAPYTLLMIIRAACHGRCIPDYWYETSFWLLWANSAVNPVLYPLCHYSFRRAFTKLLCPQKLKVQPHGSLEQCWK

`Cc1nn(C)c(=O)cc1-c1ccc(OCCCN2CCCCC2)cc1`: the bioavailability (usually dose-corrected exposure relative to a reference, in per cent) in data set [1] worked out at 69%. This molecule had a clearance in data set [2] of 2.88 L/h/kg. The pKi (commonly −log10 of the Ki, conventionally taken in molar units) in data set [3] was 7.74; in data set [5], 8.05. Besides, the half-life (as a rule, the time needed for the level to fall by half in the phase considered) in data set [4] was 1.6 h. Also, the Kp at 1 h in data set [6] was 2.4.

The molecule `C[C@H]1CCCN1CCCOc1ccc(-c2cnn(-c3ccccn3)c(=O)c2)cc1` yielded a bioavailability in data set [1] of 52%. The clearance in data set [2] amounted to 2.7 L/h/kg. For the same molecule, the half-life in data set [4] is 2.8 h. Besides, the Kp at 1 h in data set [6] came to 1.7.

In data set [1], `Cc1n[nH]c(=O)cc1-c1ccc(OCCCN2CCCCCC2)cc1` yielded a bioavailability of 25%. This molecule returned a clearance in data set [2] of 3.24 L/h/kg. Further, the pKi in data set [3] is 8.12; in data set [5], 8.32. In data set [4], this molecule had a half-life of 1 h. Also, the Kp at 1 h in data set [6] came out at 1.2.

The molecule `Cc1cccnc1-n1nc(C)c(-c2ccc(OCCCN3CCC[C@H]3C)cc2)cc1=O` displayed a bioavailability in data set [1] of 20%. The clearance in data set [2] was found to be 0.42 L/h/kg. In addition, the negative-log Ki (pKi) in data set [3] was 7.77; in data set [5], 8.52. Moreover, the half-life in data set [4] is 1.4 h. Further, the Kp at 1 h in data set [6] stood at 0.5.

In turn, `Cc1n[nH]c(=O)cc1-c1ccc(OCCCN2CCCCC2)cc1` displayed a bioavailability in data set [1] of 28%. Moreover, in data set [2], the clearance came out at 1.8 L/h/kg. In addition, the negative-log Ki (pKi) was 7.64 in data set [3] and 8.10 in data set [5]. In data set [4], this molecule showed a half-life of 0.8 h. Besides, the Kp at 1 h in data set [6] came out at 1.3.

Molecule `CC(C)n1ncc(-c2ccc(OCCCN3CCC[C@H]3C)cc2)cc1=O` gave a bioavailability in data set [1] of 1%. The molecule also returned a clearance in data set [2] of 0.72 L/h/kg. The pKi in data set [3] is 8.15; in data set [5], 8.57. Besides, in data set [4], the half-life was 0.3 h. In addition, in data set [6], the Kp at 1 h turned out to be 5.1.

In the case of `C[C@@H]1CCCN1CCCOc1ccc(-c2cn[nH]c(=O)c2)cc1`, the Kp at 1 h in data set [6] turned out to be 1.8.

For `Cc1nn(C)c(=O)cc1-c1ccc(OCCCN2CCC[C@H]2C)cc1`, the bioavailability in data set [1] is 53%. For the same molecule, the clearance in data set [2] was determined as 4.02 L/h/kg. Moreover, the pKi in data set [3] is 8.19; in data set [5], 8.70. This molecule also had a half-life in data set [4] of 1.2 h. The Kp at 1 h in data set [6] was found to be 1.7.

The molecule `Cn1ncc(-c2ccc(OCCCN3CCCCC3)cc2)cc1=O` returned a bioavailability in data set [1] of 40%. This molecule also showed a clearance in data set [2] of 4.5 L/h/kg. For the same molecule, the pKi in data set [3] is 7.52; in data set [5] it was 7.89. The molecule further had a half-life in data set [4] of 0.6 h. The Kp at 1 h in data set [6] was found to be 5.3.

`C[C@@H]1CCCN1CCCOc1ccc(-c2cnn(C)c(=O)c2)cc1`: the bioavailability in data set [1] amounted to 19%. This molecule displayed a clearance in data set [2] of 1.92 L/h/kg. Besides, the pKi in data set [3] was 8.26; in data set [5] it was 8.72. In data set [4], this molecule had a half-life of 1 h. Besides, the Kp at 1 h in data set [6] was found to be 3.3.
